Experimental data from patent US11339119B2, “Crystal form and amorphous form of dezocine analogue hydrochloride” (Shandong Danhong Pharmaceutical Co., Ltd., priority 2017, dated 2022).
≈ marks a conversion by molar mass, not a printed value. Where “and” joins values, the source holds several entries; their conditions need not be identical. Equal values may be shown once. Entries after “also recorded” stand apart in the source; their conditions may differ.

What was measured:
[1] = Hygroscopicity test of amorphous form sample; assay type: physicochemical; details: 25° C., 24 h
Method: A hygroscopicity of an amorphous form sample was detected. (The hygroscopicity of the compound was determined according to the method in the General Rules of the Chinese Pharmacopoeia (2015 Version) Volume IV).
Three dry glass weighing bottles with stoppers were weighed, the results of which were recorded as m1 1, m1 2 and m1 3. An appropriate amount of crude drug sample was spread in the weighed weighing bottles (the sample has a thickness of about 1 mm), then accurately weighed and recorded as m2 1, m2 2 and m2 3. The weighing bottles were open and placed together with bottle caps in a dryer with saturated ammonium chloride solution at a lower part, the dryer was covered, then the dryer was placed in a thermostat at 25° C. for 24 h. After being placed for 24 h, the weighing bottles were covered, then taken out for accurate weighing, the results of which were recorded as m3 1, m3 2 and m3 3. Weight increase by hygroscopicity was calculated, and the calculation formula was as follows: weight increase percentage=100%×(m3−m2)/(m2−m1).

[2] = Equilibrium solubility of amorphous form sample in different pH media; assay type: physicochemical; details: for solubility at 24 h: thermodynamic from solid
Method: An equilibrium solubility of an amorphous form sample in pH 1.0/2.0 (hydrochloric acid solution), pH 3.8/4.5/5.5 (acetate buffer solution), pH 6.0/6.8/7.4 (phosphate buffer solution) and water was detected (prepared according to the Technical Guiding Principles for Dissolution Rate Test of Ordinary Oral Solid Preparations of Chinese Pharmacopoeia).
5 mL of different media (pH 1.0, pH 2.0, pH 3.8, pH 4.5, pH 5.5, pH 6.0, pH 6.8 and pH 7.4 buffer solutions and pure water) were respectively added into nine 8 mL glass bottles, and an appropriate amount of amorphous form sample was added respectively to make the mixture a suspension. Magnetic stirring bars were added into the sample above, which are placed on a magnetic stirrer to stir (at a temperature of 37° C.).
The sample was centrifuged after 24 h, and a supernatant was taken from an upper sample to determine a concentration thereof by HPLC and a pH value thereof (results shown in Table 4).

[3] = Solid stability test of amorphous form (HPLC content and total impurity); assay type: physicochemical
Method: 1.5 High Performance Liquid Chromatograph (HPLC) • Instrument model: Agilent 1200 high performance liquid chromatograph • The analysis method is as follows:
Stability of amorphous form sample under conditions of high temperature, high humidity (40° C./RH 75.0%, closed) and acceleration.
About 1.4 g of sample was put into a double-layer LDPE bag, each layer of LDPE bag was fastened and sealed respectively, then the LDPE bag and a medicinal desiccant were put into an aluminum-foil bag and sealed by heating, under conditions of high temperature and high humidity, a sample was taken on the 30th day for detection, and a detection result was compared with an initial detection result on the 0th day.

[4] = Solid stability test of crystal form (XRPD); assay type: physicochemical
Method: According to the Guiding Principles for Stability Experiment of Crude Drugs and Preparations (General Rules 9001 of Chinese Pharmacopoeia (2015 Version) Volume IV), a stability of a compound placed under conditions of high temperature (60° C., open), high humidity (RT/92.5% RH, open) and illumination (50001×, closed) for 5 days and 10 days were investigated.
An appropriate amount of a crystal form sample of a compound represented by formula (I) was placed at a bottom of a glass sample bottle and spread into a thin layer. The sample placed under the conditions of high temperature and high humidity was sealed with aluminum-foil paper, and small holes were punched in the aluminum-foil paper to ensure that the sample could be fully contacted with ambient air. The sample placed under the condition of illumination (50001×) was sealed with a bottle cap and further sealed with a sealing film, the sample was sealed and placed at a room temperature, and XRPD detection was performed on the 5th day and the 10th day.

[5] = Pharmacokinetic study, intramuscular injection in mouse; assay type: in vivo, SD mouse; details: sesame oil suspension
Method: Through the experiment of drug metabolism in a mouse, the metabolism of the compound in the mouse is evaluated by taking Cmax, t1/2, AUC, MRT and B/P ratio in vivo as indexes.
A test compound was mixed with an appropriate amount of sesame oil, and the mixture was vortexed and ultrasonically processed to obtain an even suspension of 25 μmol/mL. A SD mouse aged 6 weeks to 9 weeks (Shanghai SLAC Laboratory Animal Co., Ltd) was selected and intramuscularly injected with a suspension of the test compound at a dose of 20 μmol/kg or 40 μmol/kg. Whole blood of a certain period of time was collected, and a precipitant (acetonitrile, methanol and internal standard for analysis) was added and centrifuged. A supernatant solution was analyzed for a drug concentration by a LC-MS/MS method (if the test drug was the prodrug, concentrations of the prodrug and the hydrolyzed parent drug were analyzed simultaneously), and pharmacokinetic parameters were calculated by Phoenix WinNonlin software (Pharsight Company of the United States).

[6] = High temperature and high humidity (40° C./RH 75.0%, close), 30 days

Q: For `C[C@@]12CCCCC[C@@H](Cc3c(F)cc(OC(=O)CCCCCCCCC(=O)Oc4cc(F)c5c(c4)[C@@]4(C)CCCCC[C@@H](C5)[C@@H]4N)cc31)[C@@H]2N` [listing 1 of 2 here], which “Hygroscopicity (in words)” value [1] is on record?
A: Its value is “had hygroscopicity”.

Q: What about the “Weight increase percentage, average value” ([1]; average of three samples, over saturated ammonium chloride solution) of the same molecule?
A: Its value is 5.24%.

Q: And the Weight increase percentage ([1]; single samples 1-3, over saturated ammonium chloride solution)?
A: Its Weight increase percentage is 5.790% and 5.215% and 4.714%.

Q: What about the solubility at 24 h ([2]; 0.01 N HCl, simulated gastric fluid, 0.01 NHCl, final pH 2.01, 37° C., 24 h) of the same molecule?
A: Its solubility at 24 h is 1630 µg/mL (≈ 2.35 mM).

Q: What about the solubility at 24 h ([2]; 0.1 N HCl, simulated gastric fluid, 0.1 NHCl, final pH 1.02, 37° C., 24 h) of the same molecule?
A: Its solubility at 24 h is 398 µg/mL (≈ 0.574 mM).

Q: And the solubility at 24 h ([2]; aqueous buffer, pH 3.8 buffer solution (acetate), final pH 3.68, 37° C., 24 h)?
A: The solubility at 24 h was 15100 µg/mL (≈ 21.8 mM).

Q: And the solubility at 24 h ([2]; aqueous buffer, pH 4.5 buffer solution (acetate), final pH 4.48, 37° C., 24 h)?
A: The solubility at 24 h was 19600 µg/mL (≈ 28.3 mM).

Q: What about the solubility at 24 h ([2]; aqueous buffer, pH 5.5 buffer solution (acetate), final pH 5.25, 37° C., 24 h) of the same molecule?
A: Its solubility at 24 h is 18700 µg/mL (≈ 27 mM).

Q: And the solubility at 24 h ([2]; aqueous buffer, pH 6.0 buffer solution (phosphate), final pH 5.89, 37° C., 24 h)?
A: Its solubility at 24 h is 13 µg/mL (≈ 0.0188 mM).

Q: And the solubility at 24 h ([2]; aqueous buffer, pH 6.8 buffer solution (phosphate), final pH 6.75, 37° C., 24 h)?
A: The solubility at 24 h was 3 µg/mL (≈ 0.00433 mM).

Q: What about the “Solubility (in words)” value ([2]; hydrochloric acid solution, acetate buffer solution and water) of the same molecule?
A: Its value is “easily soluble”.

Q: What about the Solubility ([2]; pH 7.4 buffer solution (phosphate), final pH 7.20, 37° C., 24 h, LOQ = 0.0003 mg/mL) of the same molecule?
A: Its Solubility is “<LOQ”.

Q: And the “Solubility (in words)” value ([2]; phosphate buffer solution)?
A: Its value is “slightly soluble or insoluble”.

Q: And the solubility at 24 h ([2]; pure water, Water, final pH 4.28, 37° C., 24 h)?
A: Its solubility at 24 h is 13500 µg/mL (≈ 19.5 mM).

Q: What about the Content ([3]; 0 day) of the same molecule?
A: The Content was 99.3%.

Q: What about the Total impurity ([3]; 0 day) of the same molecule?
A: Its Total impurity is 1.56%.

Q: And the Content [3, 6]?
A: The Content was 97.8%.

Q: And the Total impurity [3, 6]?
A: The Total impurity was 1.96%.

Q: And the “Solid stability of amorphous form (conclusion in words)” value ([3]; high temperature, high humidity and sealing, 30 days)?
A: Its value is “relatively stable”.

Q: With `C[C@@]12CCCCC[C@@H](Cc3c(F)cc(OC(=O)CCCCCCCCC(=O)Oc4cc(F)c5c(c4)[C@@]4(C)CCCCC[C@@H](C5)[C@@H]4N)cc31)[C@@H]2N` [listing 2 of 2 here] as the molecule, how does the “Crystal form (MOD)” value ([4]; 0 day, initial) read?
A: Its value is “Crystal form of compound represented”.

Q: What about the “Crystal form (MOD)” value ([4]; High humidity (RT/RH 92.5%, open), 5 days) of the same molecule?
A: The value was “Crystal form of compound represented”.

Q: What about the “Crystal form (MOD)” value ([4]; High humidity (RT/RH 92.5%, open), 10 days) of the same molecule?
A: Its value is “Crystal form of compound represented”.

Q: And the “Crystal form (MOD)” value ([4]; High temperature (60° C., open), 5 days)?
A: The value was “Crystal form of compound represented”.

Q: What about the “Crystal form (MOD)” value ([4]; High temperature (60° C., open), 10 days) of the same molecule?
A: The value was “Crystal form of compound represented”.

Q: And the “Crystal form (MOD)” value ([4]; Illumination (5000lx, closed), 5 days)?
A: Its value is “Crystal form of compound represented”.

Q: And the “Crystal form (MOD)” value ([4]; Illumination (5000lx, closed), 10 days)?
A: Its value is “Crystal form of compound represented”.

Q: What about the “Solid stability of crystal form (conclusion in words)” value ([4]; high temperature, high humidity and illumination, 5 and 10 days vs 0 day) of the same molecule?
A: Its value is “did not change; also recorded: stable under the conditions of high temperature, high humidity and illumination without any change”.

Q: Which “Release and hydrolysis in vivo (in words)” value [5] does the source give for `C[C@@]12CCCCC[C@@H](Cc3c(F)cc(OC(=O)CCCCCCCCC(=O)Oc4cc(F)c5c(c4)[C@@]4(C)CCCCC[C@@H](C5)[C@@H]4N)cc31)[C@@H]2N` [Compound B] here?
A: The value was “slowly released in vivo after intramuscular injection and quickly hydrolyzed into the parent drug compound A”.
